Assay results from US11746103B2, “ALK-5 inhibitors and uses thereof” (Sumitomo Pharma Oncology, Inc., priority 2020, dated 2023).
“Also recorded” adds a separate entry of the source.

What was measured:
Type in all cases: in vivo, mouse
[1] = test system: antigen presentation pathway (APP); assay: Nanostring differential gene expression analyses of 4T1, EMT6 and S91 tumors; settings: 4T1, EMT6, S91 tumors
Excerpt: The objective of this study was to determine the differential gene expression (DGE) patterns of 4T1, EMT6, and S91 tumors treated with EX-11+immune checkpoint inhibitor (ICI), EX-11 alone, ICI alone, or vehicle control. For the purpose of this study, ICI=anti-PD-1 or anti-PD-L1, as indicated.
For NanoString assays, tumors from three syngeneic models of cancer were used:
RNA was isolated from the frozen tumors of ≥3 mice per group using the Direct-Zol RNA Miniprep (Zymo Research). The treatment arms and number of mice/tumors used for downstream applications is outlined in Table 17 (R=Responder, NS=Non-responder).
Equal concentrations of RNA for each tumor within each group were pooled. Two-hundred ng of RNA per group was used for downstream applications. Three separate NanoString nCounter panels were used per protocol: 1) Fibrosis, 2) PanCancer Pathways, 3) Immunology. RCC raw data files were uploaded into nCounter 4.0 software where counts were normalized to housekeeping genes. Gene lists in each panel were combined into a single spreadsheet for downstream analyses. For genes found in […], mean count values were used. RStudio software was used to generate heat maps of DGE signatures within each study for each group. Ingenuity Pathway Analysis (IPA) was used to identify the dysregulated signaling pathways within each study for each group.

[2] = test system: bleomycin-induced lung fibrosis; assay: Bleomycin-induced lung fibrosis study
Excerpt: Fibrosis, the formation of excess connective tissue causing stromal hardening and scar formation is a hallmark of cancer. Up to 20% of cancers are linked to chronic, inflammation-related fibrosis, including hepatocellular, gastric, esophageal, head and neck, colon, pancreatic, cervix, and vulvar cancers. The contribution of fibrosis for early cancer development remains unclear; however, in some advanced solid tumors it is believed that fibrotic tissues act like a barrier, preventing therapeutic agents like chemotherapy or biologics from penetrating the tumor tissue. Additionally, strong fibrotic tissue is thought to contribute to excluding immune cells from entering the tumor core, creating immune excluded or immune desert phenotypes. To evaluate the anti-fibrotic properties of Ex-11, a prophylactic model of bleomycin-induced lung fibrosis in male C57BL/6 mice was utilized, and various endpoints evaluated.
All mice in this study were 8-week-old male C57BL/6 mice purchased from Taconic. On Day −2 prior to bleomycin administration, all animals were weighed and distributed into groups with 10 mice each (Table 18) such that each group of animals contained animals of similar body weights.
On day 0, animals were treated with 1.5 U/kg bleomycin (Blenoxane catalog number NDC 61703-323-22, Hospira Pharmaceutical) intratracheally, except Group 1, which was administered normal saline via oropharyngeal route to serve as the healthy naïve control group. Prophylactic treatment was administered from one day prior to bleomycin administration to day 21 post bleomycin administration. On Day 21, only the morning dose was administered. Animals were harvested on day 21 and lung weights were measured. Body weights of all mice was recorded at least three times a week beginning on Day −2 and ending on the day of harvest, Day 21. Pirfenidone was used as positive control compound, as it is an FDA-approved drug for the treatment of idiopathic pulmonary fibrosis (IPF) in humans. All compounds were prepared in 10% Tween-20 in water; a homogenous suspension was formulated using a magnetic stir bar.
At the end of the study, total lung tissues were weighed and fixed for histological examination, which was conducted by a trained pathologist blinded to the treatment groups. Specifically, whole lungs from each mouse were paraffin-embedded in a single block. Two slides from each block were sectioned to the depth of the mainstem bronchi (near the center of each lobe) and stained with either hematoxylin and eosin (H&E) or Masson's trichrome (MT). Glass slides were evaluated using light microscopy by a board-certified veterinary pathologist. Lung sections were scored according to the methods described below, evaluating five randomly chosen fields in each tissue. Fixed lungs were sectioned, and consecutive tissue sections were stained with H&E or MT. Various pathological scoring parameters were used to determine the average Ashcroft score, as well as average inflammation and collagen deposition indicating fibrosis.
Parameter of scoring formalin fixed lung sections:
Modified Ashcroft Score: H&E-stained lung sections were scored according to the modified Ashcroft scale. Scores for five representative 200× microscopic fields per sample were averaged to obtain a mean score for each animal. […]

[3] = test system: ES-2-luc cells; assay: Cachexia model (ES-2 clear cell carcinoma); settings: 150 mg/Kg BID
Excerpt: TGF-β1 signaling regulates ovarian cancer progression during initial carcinogenesis, tumor dissemination, and reestablishment of ascites through peritoneal cavity. Clear cell carcinoma is a specifically aggressive and therapy-resistant subtype of epithelial ovarian cancer. ES-2 clear cell carcinoma in vivo model was used to test efficacy of EX-11 in reducing ovarian tumor burden as determined by ascites fluid volume assessment. Because ALK5 signaling can regulate muscle growth and wasting, the efficacy of EX-11 in preventing ovarian cancer-induced cachexia was tested. Muscle health was assessed using histological evaluation of heart muscle tissue, and by comparison of gross weight of hind limb between the different treatment groups.
Sixteen-week-old female athymic nude mice were injected with two million ES-2-luc cells. […]
Mortality was recorded for animals found dead in the cage, and for the animals sacrificed based on humane end point based on main three criteria—loss of mobility and response, wasting with pronounced ascites fluid buildup, and palpable drop in body temperature (animals were assessed as cold to touch when handled in gloves).
On study day 22, the remaining surviving animals in the vehicle group were determined moribund, and the study was terminated based on humane end point criteria. […]

## Cc1cccc2c(Nc3ccnc(Nc4cccc(N5CCOCC5)c4)n3)cnnc12 [EX-11, N4-(8-methylcinnolin-4-yl)-N2-(3-morpholinophenyl)pyrimidine-2,4-diamine]
[1]
  antigen presentation pathway (APP) in tumors: upregulates the APP in tumors
[2]; 75 mg/kg twice a day
  body weight loss: No severe weight loss of over 5-10%
[2]; H&E, vs bleomycin/vehicle
  average Ashcroft score: highly statistically significant reduction in the average score
  average lung inflammation score: highly statistically significant reduction in the average score
[2]; Masson's trichrome, vs bleomycin/vehicle
  average lung fibrosis/collagen deposition score: highly statistically significant reduction in the average score
[2]; day 21, vs bleomycin/vehicle
  lung weight normalized to total animal weight (lung weight index): highly statistically significant
  total lung weight: significant decrease in lung weight
[3]
  ascites fluid volume compared to vehicle: reduction in total fluid volume; also recorded: reduced ascites fluid volume
  whole hind limb weight compared to vehicle: recorded higher; also recorded: improved hind limb weight retention
